From patent US9777000B2, “Pyrazole derivative” (MOCHIDA PHARMACEUTICAL CO., LTD., priority 2013, dated 2017)
pIC50: −log10 of the molar value.

Biological target: human PDE10 (Homo sapiens (Human), UniProt Q9Y233)
Test: Evaluation of enzyme inhibitory activity: human PDE10 inhibitory effect (IMAP TR-FRET)
Format: biochemical
Conditions: cAMP substrate
Procedure, shortened: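 IMAP TR-FRET assay: PDE10 (diluted to 2 ng/mL) was preincubated 5 min with compound in Tris pH 7.2, 10 mM MgCl2, 0.1% BSA, then reacted 60 min at room temperature with cAMP (diluted to 400 nM). 5′-AMP was read as 520/490 nm TR-FRET (ex 340 nm) after ≥3 h binding; IC50 was referenced to solvent (0%) and no-enzyme (100%) wells.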

Chain of human PDE10 (Q9Y233 whole entry): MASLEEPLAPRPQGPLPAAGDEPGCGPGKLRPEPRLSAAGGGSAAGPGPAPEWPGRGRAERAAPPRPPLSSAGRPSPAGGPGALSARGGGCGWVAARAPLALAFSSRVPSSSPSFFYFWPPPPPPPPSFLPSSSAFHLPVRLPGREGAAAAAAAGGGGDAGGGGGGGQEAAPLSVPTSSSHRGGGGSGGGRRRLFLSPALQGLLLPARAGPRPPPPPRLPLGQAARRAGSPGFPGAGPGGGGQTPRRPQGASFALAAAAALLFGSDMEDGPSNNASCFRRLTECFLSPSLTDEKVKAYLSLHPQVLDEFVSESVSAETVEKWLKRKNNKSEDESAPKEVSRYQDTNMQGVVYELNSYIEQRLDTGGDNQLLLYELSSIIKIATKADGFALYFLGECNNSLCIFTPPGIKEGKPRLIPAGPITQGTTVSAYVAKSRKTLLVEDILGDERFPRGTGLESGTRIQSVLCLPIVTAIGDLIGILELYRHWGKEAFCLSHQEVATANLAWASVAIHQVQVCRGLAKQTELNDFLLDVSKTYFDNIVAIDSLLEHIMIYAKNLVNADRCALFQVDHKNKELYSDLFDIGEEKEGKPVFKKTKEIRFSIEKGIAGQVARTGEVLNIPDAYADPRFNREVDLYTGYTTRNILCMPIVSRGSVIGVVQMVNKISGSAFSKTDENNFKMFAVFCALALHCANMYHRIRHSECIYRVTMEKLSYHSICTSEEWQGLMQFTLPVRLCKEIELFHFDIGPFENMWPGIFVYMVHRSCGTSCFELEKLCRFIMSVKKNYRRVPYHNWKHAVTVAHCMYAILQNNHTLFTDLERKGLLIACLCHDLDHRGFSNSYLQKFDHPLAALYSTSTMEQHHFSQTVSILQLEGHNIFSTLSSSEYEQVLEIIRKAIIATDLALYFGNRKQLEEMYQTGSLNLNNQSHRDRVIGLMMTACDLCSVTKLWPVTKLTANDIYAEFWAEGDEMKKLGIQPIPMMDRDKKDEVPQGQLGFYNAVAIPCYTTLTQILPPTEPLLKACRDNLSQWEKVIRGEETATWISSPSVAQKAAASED

Row | Structure (SMILES) | pIC50
1 | COc1ncc(F)c(-c2cnn(C)c2C(=O)Nc2cc3nc(-c4ccccc4)nn3cc2F)n1 [Example 3.27, 4-(5-fluoro-2-methoxypyrimidin-4-yl)-N-(6-fluoro-2-phenyl-[1,2,4]triazolo[1,5-a]pyridin-7-yl)-1-methyl-1H-pyrazole-5-carboxamide] | > 8.30
2 | COc1ccccc1-c1nc2n(n1)CCC(NC(=O)c1c(-c3nc(C(F)F)cs3)cnn1C)C2 (stereo not shown) [Example 5.34, 4-(4-(difluoromethyl)thiazol-2-yl)-N-(2-(2-methoxyphenyl)-5,6,7,8-tetrahydro-[1,2,4]triazolo[1,5-a]pyridin-7-yl)-1-methyl-1H-pyrazole-5-carboxamide] | > 8.30
3 | Cc1cncnc1-c1cnn(C)c1C(=O)Nc1cc2nc(-c3ccccc3)nn2cc1F [Example 3.33, N-(6-fluoro-2-phenyl-[1,2,4]triazolo[1,5-a]pyridin-7-yl)-1-methyl-4-(5-methylpyrimidin-4-yl)-1H-pyrazole-5-carboxamide] | > 8.30
4 | Cc1cc(C)nc(-c2cnn(C)c2C(=O)Nc2cc3nc(N4CC[C@H](F)C4)nn3cc2F)c1 [Example 4.24, (S)-4-(4,6dimethylpyridin-2-yl)-N-(6-fluoro-2-(3-fluoropyrrolidin-1-yl)-[1,2,4]triazolo[1,5-a]pyridin-7-yl)-1-methyl-1H-pyrazole-5-carboxamide] | > 8.30
